# Source: patent publication US9671415B2, “Immunoassay for pyrrolidinophenones” (RANDOX LABORATORIES LIMITED, priority 2014, dated 2017)
# Several values for one entry are separate records, joined by “and”; a condition that tells them apart may be missing. Identical values can stand only once. Counter-ions that a name gives are not always drawn.
# Experiments:
# α-PVP antibody = assay: α-PVP/MDPV ELISA kit validation assay (Example 11); type: binding; conditions: for % Cross-Reactivity: α-PVP/MDPV ELISA kit specificity, relative to α-PVP = 100, Table 10; for % CR: calculated with reference to the standard of that run; for Reactant IC50: standard concentration which produced 50% B/B0 in that run
# Protocol: A microtitre plate was precoated with α-PVP antibody. α-PVP (antigen), if present in the sample competes with the horseradish peroxidase labelled α-PVP (enzyme labelled antigen) for a limited number of antibody sites on the microtitre plate. After incubation at room temperature to allow a competition reaction to take place, the microtitre plate was washed to remove excess reagents. The enzyme substrate was added. After an incubation period to allow maximum colour development, the colour reaction was stopped by the addition of acid. This produces a colour change from blue to yellow, and the absorbances are read at 450 nm. A standard curve was then constructed to determine the α-PVP concentration in the sample.
# 2. Urine samples were diluted 1:50 with diluent (I.e. 10 μl sample+490 μl diluent).
# • 1. Whole blood samples were diluted 1:50 with diluent (i.e. 10 μl sample+490 μL diluent). • 2. The sample was mixed gently by pipetting without the formation of foam. Procedure
# The assay was performed in duplicate. The layout of Table 4 was used where each box represents 2 wells:
# a) Table 5 details what was pipetted into the appropriate wells of the microtitre plate:
# b) The microtitre plate was gently tapped from side to side for a few seconds. c) The microtitre plate was covered with a plate sealer before incubating for 30 minutes at room temperature (+15° C. to +25° C.) in the dark. d) The plate was inverted and the liquid tapped out liquid. e) The plate was washed 6 times with diluted wash buffer (ensuring all wells were filled), over a 10-15 minute period. After the final wash the liquid was discarded liquid and the plate was tapped onto lint free tissue paper until completely dry. f) Immediately after washing, one 125 μl shot of substrate was pipetted into each well using a multichannel pipette. The microtitre plate was gently tapped from side to side and incubated for 20±2 minutes at room temperature (+15 to +25° C.) in the dark. g) The colour reaction was stopped by the addition of 100 μl of stop solution per well. A colour change from blue to yellow resulted. h) The optical density was measured at 450 nm within 10 minutes of stopping the colour reaction. The use of a 630 nm filter was used as the reference wavelength. […] Assay Cut-Off
# Equally, pyrrolidinopentiothiophenone and mdpbp were assessed in the same run; and mdppp and α-pyrrolidinopropiophenone were assessed in the same run. […] The Reactant IC50s (i.e. ^2 in the table above) are the standard concentrations which produced 50% B/B0 in that run. The % CR (last column in the table above) is calculated with reference to the standard used in that particular run.
# Antibody-1B = assay: Competitive ELISA for pyrrolidinophenones, Antibody-1B with Tracer-1 (Example 10); type: binding, sheep; conditions: Antibody-1B coated at 2.5 μg/ml, Tracer-1 at 1/128k; for IC50 / % Cross-Reactivity: Table 2; for % Cross-Reactivity: relative to α-PVP = 100
# Protocol: The purified polyclonal antibody from Example 9 (Antibody-1B) was immobilised on a 96 well ELISA plate at 2.5 μg/ml in 10 mM TRIS buffer, pH 8.5 overnight at 4° C. The assay is based on competition for binding sites of a polyclonal antibody between HRP tracer (Tracer-1) and α-PVP or potential cross-reactants. The plate was washed (×3) with TBST (Tris-Buffered Saline/Tween solution) and the calibrator (α-PVP) or potential cross reactants added (50 μl per well), followed by HRP tracer (Tracer-1) (75 μl/well) to the appropriate wells. The plates were then incubated for 60 minutes at 25° C. They were then subjected to 2 quick wash cycles using TBST, followed by 4×2 minute wash cycles. 125 μl of signal (TMB) was then added to each well for 20 mins at room temperature in the dark. The reaction was stopped by the addition of 125 μl of 0.2 M sulphuric acid per well and the plates read immediately at 450 nm. Calibration curves were generated using α-PVP and these were used to determine the sensitivity and specificity of the immunoassay for potential cross-reactants. The data was inputted to a computer program called KC Junior (Biotek). It gives a 4 parameter fit curve and allows the calculation of concentrations between the standard runs. This program is used to calculate the IC50 values by dividing the 0 ng/ml optical density (OD) value by 2 and obtaining the concentration value from the curve for this OD. The results of this study are presented in Tables 1 and 2, cross-reactivity being calculated according to the following formula: % CR=[…]/IC50 CR×100 wherein % CR is the percentage cross-reactivity, IC50 α-PVP is the concentration of α-PVP which causes 50% displacement of signal and IC50 CR is the concentration of potential cross-reactant that causes 50% displacement of signal.
# Antibody-1B (Example 9) used to generate the data in the tables below was raised from Immunogen-1B (Example 7) and the HRP tracer (Tracer-1) was prepared as in Example 8. All of the compounds in Table 2 are commercially available from suppliers such as Cayman Chemical (Ann Arbor, Mich., USA).
# Antibodies in EP2626358 = conditions: immunoassay of EP2626358; cited from earlier work
# [1] = unit not given, Table 11, in ng/mL
Compound,% Cross-Reactivity (α-PVP antibody),IC50 (Antibody-1B),% Cross-Reactivity (Antibody-1B),% CR (α-PVP antibody; Table 11),Reactant IC50 (α-PVP antibody; [1]),other results
CCCCC(C(=O)c1ccc(C)cc1)N1CCCC1 (stereo not drawn) [4′-Methyl-α-pyrrilidinohexylphenone],38.1%,,,,,
CC(C(=O)c1ccccc1)N1CCCC1 (stereo not drawn) [α-Pyrrolidinopropiophenone],0.8%,>10 ng/mL,<3.150%,0.8%,18.744,
"CCCC(C(=O)c1ccc2c(c1)OCO2)N1CCCC1 (stereo not drawn) [MDPV, 3′,4′-Methylenedioxy-α-pyrrolidinopentiophenone]",93.3%,0.176 ng/mL,178.977%,93.3%,0.164,
"CCCC(C(=O)c1ccccc1)N1CCCC1 (stereo not drawn) [α-PVP, α-Pyrrolidinovalerophenone]",100%,0.315 ng/mL,100%,100%,0.153,"IC50 (standard concentration which produces 50% B/B0) (Antibody-1B; standard α-PVP, Table 1): 0.315 ng/mL; STD IC50 (α-PVP antibody; IC50 of the standard (alpha-pvp) in the same run as the reactant of the line, unit not given, Table 11, in ng/mL): 0.18 and 0.153 and 0.149; cross-reactivity (Antibodies in EP2626358): very low"
"CCCC(NC)C(=O)c1ccc2c(c1)OCO2 (stereo not drawn) [Pentylone, 1-(1,3-benzodioxol-5-yl)-2-(methylamino)pentan-1-one]",<1%,,,,,
"CCCCCC(C(=O)c1ccc(OC)cc1)N1CCCC1.Cl (stereo not drawn) [4-Methoxy-PV8 HCl, 1-(4-methoxyphenyl)-2-(pyrrolidin-1-yl)heptan-1-one, hydrochloride]",11.7%,,,,,
"CCC(NC)C(=O)c1ccc2c(c1)OCO2 (stereo not drawn) [Butylone, 1-(1,3-benzodioxol-5-yl)-2-(methylamino)butan-1-one]",<1%,,,,,
Cc1ccc(C(=O)C(C)N2CCCC2)cc1 (racemic) [4′-Methyl-α-pyrrolidinopropiophenone],1.8%,>10 ng/mL,<3.150%,,,
"CCC(C(=O)c1ccc2c(c1)OCO2)N1CCCC1 (stereo not drawn) [MDPBP, 3′,4′-Methylenedioxy-α-pyrrolidinobutiophenone]",17.2%,1.532 ng/mL,20.561%,17.2%,1.044,
CNC(C)C(=O)c1ccc(OC)cc1 (stereo not drawn) [Methedrone],<1%,,,,,
CNC(C)C(=O)c1ccc(C)cc1 (stereo not drawn) [Mephedrone],<1%,,,,,
CNC(C)C(=O)c1ccc2c(c1)OCO2 (stereo not drawn) [Methylone],<1%,,,,,
"CC(C(=O)c1ccc2c(c1)OCO2)N1CCCC1 (stereo not drawn) [3′,4′-Methylenedioxy-α-pyrrolidinopropiophenone]",0.8%,,,0.8%,17.727,
CCC(C(=O)c1ccc(C)cc1)N1CCCC1 (stereo not drawn) [4′-Methyl-α-pyrrolidinobutiophenone],23.2%,,,,,
"CNC(C)C(=O)c1ccc(F)cc1 (stereo not drawn) [4-Fluoromethcathinone, 4-fluoro-N-methylcathinone]",<1%,,,,,
"CCCC(C(=O)c1ccc(C)cc1)N1CCCC1 (stereo not drawn) [Pyrovalerone, 4-Methyl-α-pyrrolidinopentiophenone]",125.4%,0.168 ng/mL,187.500%,125.4%,0.122,
"CCCCCCC(C(=O)c1ccc(F)cc1)N1CCCC1.Cl (stereo not drawn) [4-Fluoro-PV9 HCl, 1-(4-fluorophenyl)-2-(pyrrolidin-1-yl)octan-1-one, monohydrochloride]",3.2%,,,,,
"CCCC(C(=O)c1ccc(OC)cc1)N1CCCC1 (stereo not drawn) [4-Methoxy-α-pyrrolidinopentiophenone, 4′-Methoxy-α-pyrrolidinopentiophenone]",,0.233 ng/mL,135.193%,,,
"CCCC(C(=O)c1cccs1)N1CCCC1 (stereo not drawn) [α-Pyrrolidinopentiothiophenone HCl, α-Pyrrolidinopentiothiophenone]",73.2%,,,73.2%,0.246,
"CCCC(C(=O)c1ccc2ccccc2c1)N1CCCC1 (stereo not drawn) [Naphyrone, 1-(naphthalen-2-yl)-2-(pyrrolidin-1-yl)pentan-1-one]",70.2%,0.221 ng/mL,142.534%,70.2%,0.218,
